pIC50: −log10 of the molar value.
Tested on: 876862-298-R-J1-PDC complex spheroids, viability % test/control
Experiment: Anticancer human tumor 876862-298-R-J1-PDC patient-derived endometrial carcinoma cell line growth inhibition [CLK]
Conditions: for pIC50: curve of first compound; for viability, T/C: stronger effect = lower value
How it was run: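 Multi-cell-type spheroids combined patient-derived tumor cells with HUVEC endothelial cells and human mesenchymal stem cells. Paired agents were dosed in half-log steps down from about clinical Cmax, or from 10 microM where Cmax was unknown.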

[1] = second compound 0.0316 µM, first compound 0.0316 µM
[2] = second compound 0.0316 µM, first compound 0.1 µM
[3] = second compound 0.0316 µM, first compound 0.316 µM
[4] = second compound 0.0316 µM, first compound 1 µM
[5] = second compound 0.1 µM, first compound 0.0316 µM
[6] = second compound 0.1 µM, first compound 0.1 µM
[7] = second compound 0.1 µM, first compound 0.316 µM
[8] = second compound 0.1 µM, first compound 1 µM
[9] = second compound 0.316 µM, first compound 0.0316 µM
[10] = second compound 0.316 µM, first compound 0.1 µM
[11] = second compound 0.316 µM, first compound 0.316 µM
[12] = second compound 0.316 µM, first compound 1 µM
[13] = second compound 1 µM, first compound 0.0316 µM
[14] = second compound 1 µM, first compound 0.1 µM
[15] = second compound 1 µM, first compound 0.316 µM
[16] = second compound 1 µM, first compound 1 µM
[17] = second compound 3.16 µM, first compound 0.0316 µM
[18] = second compound 3.16 µM, first compound 0.1 µM
[19] = second compound 3.16 µM, first compound 0.316 µM
[20] = second compound 3.16 µM, first compound 1 µM
[21] = second compound 10 µM, first compound 0.0316 µM
[22] = second compound 10 µM, first compound 0.1 µM
[23] = second compound 10 µM, first compound 0.316 µM
[24] = second compound 10 µM, first compound 1 µM
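Also: spheroids exposed to drugs for 7 days before readout.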
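For viability, T/C in this document: 100% = DMSO vehicle control wells.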

## CC(=O)O[C@H]1C(=O)[C@@]2(C)[C@H]([C@H](OC(=O)c3ccccc3)[C@]3(O)C[C@H](OC(=O)[C@H](O)[C@@H](NC(=O)c4ccccc4)c4ccccc4)C(C)=C1C3(C)C)[C@]1(OC(C)=O)CO[C@@H]1C[C@@H]2O + CN1CCN(c2cc(C(=O)Nc3cc4cc(-c5cnn(C)c5)ccc4cn3)ccn2)CC1
Second compound 0.0316 µM
  pIC50: > 7.50
Second compound 0.1 µM
  pIC50: > 7.50
Second compound 0.316 µM
  pIC50: > 7.50
Second compound 1 µM
  pIC50: > 7.50
Second compound 3.16 µM
  pIC50: > 7.50
Second compound 10 µM
  pIC50: > 7.50
[1]
  viability, T/C: 32.4%
[2]
  viability, T/C: 28.7%
[3]
  viability, T/C: 30.5%
[4]
  viability, T/C: 28.1%
Second compound 0.0316 µM, first compound 3.16 µM
  viability, T/C: 30.7%
Second compound 0.0316 µM, first compound 10 µM
  viability, T/C: 34.8%
[5]
  viability, T/C: 28.6%
[6]
  viability, T/C: 24.5%
[7]
  viability, T/C: 22.7%
[8]
  viability, T/C: 21.3%
Second compound 0.1 µM, first compound 3.16 µM
  viability, T/C: 23.5%
Second compound 0.1 µM, first compound 10 µM
  viability, T/C: 24.1%
[9]
  viability, T/C: 1.74%
[10]
  viability, T/C: 1.82%
[11]
  viability, T/C: 2.01%
[12]
  viability, T/C: 2.21%
Second compound 0.316 µM, first compound 3.16 µM
  viability, T/C: 2.68%
Second compound 0.316 µM, first compound 10 µM
  viability, T/C: 4.53%
[13]
  viability, T/C: 0.82%
[14]
  viability, T/C: 0.89%
[15]
  viability, T/C: 0.6%
[16]
  viability, T/C: 0.59%
Second compound 1 µM, first compound 3.16 µM
  viability, T/C: 0.84%
Second compound 1 µM, first compound 10 µM
  viability, T/C: 0.56%
[17]
  viability, T/C: 0.93%
[18]
  viability, T/C: 0.84%
[19]
  viability, T/C: 0.96%
[20]
  viability, T/C: 0.79%
Second compound 3.16 µM, first compound 3.16 µM
  viability, T/C: 0.78%
Second compound 3.16 µM, first compound 10 µM
  viability, T/C: 0.55%
[21]
  viability, T/C: 0.6%
[22]
  viability, T/C: 0.59%
[23]
  viability, T/C: 0.57%
[24]
  viability, T/C: 0.58%
Second compound 10 µM, first compound 3.16 µM
  viability, T/C: 0.66%
Second compound 10 µM, first compound 10 µM
  viability, T/C: 0.58%

## CCc1c2c(nc3ccc(O)cc13)-c1cc3c(c(=O)n1C2)COC(=O)[C@]3(O)CC + CN1CCN(c2cc(C(=O)Nc3cc4cc(-c5cnn(C)c5)ccc4cn3)ccn2)CC1
Second compound 0.0316 µM
  pIC50: > 8.50
Second compound 0.1 µM
  pIC50: > 8.50
Second compound 0.316 µM
  pIC50: > 8.50
Second compound 1 µM
  pIC50: > 8.50
Second compound 3.16 µM
  pIC50: > 8.50
Second compound 10 µM
  pIC50: > 8.50
Second compound 0.0316 µM, first compound 0.00316 µM
  viability, T/C: 25.1%
Second compound 0.0316 µM, first compound 0.01 µM
  viability, T/C: 8.53%
[1]
  viability, T/C: 7.87%
[2]
  viability, T/C: 4.18%
[3]
  viability, T/C: 3.57%
[4]
  viability, T/C: 2.49%
Second compound 0.1 µM, first compound 0.00316 µM
  viability, T/C: 14.1%
Second compound 0.1 µM, first compound 0.01 µM
  viability, T/C: 7.89%
[5]
  viability, T/C: 5.72%
[6]
  viability, T/C: 4.71%
[7]
  viability, T/C: 3.63%
[8]
  viability, T/C: 2.79%
Second compound 0.316 µM, first compound 0.00316 µM
  viability, T/C: 1.72%
Second compound 0.316 µM, first compound 0.01 µM
  viability, T/C: 1.95%
[9]
  viability, T/C: 1.32%
[10]
  viability, T/C: 0.72%
[11]
  viability, T/C: 0.73%
[12]
  viability, T/C: 0.47%
Second compound 1 µM, first compound 0.00316 µM
  viability, T/C: 0.79%
Second compound 1 µM, first compound 0.01 µM
  viability, T/C: 0.82%
[13]
  viability, T/C: 1.38%
[14]
  viability, T/C: 1.51%
[15]
  viability, T/C: 0.71%
[16]
  viability, T/C: 0.54%
Second compound 3.16 µM, first compound 0.00316 µM
  viability, T/C: 0.79%
Second compound 3.16 µM, first compound 0.01 µM
  viability, T/C: 0.71%
[17]
  viability, T/C: 0.85%
[18]
  viability, T/C: 0.75%
[19]
  viability, T/C: 0.6%
[20]
  viability, T/C: 0.43%
Second compound 10 µM, first compound 0.00316 µM
  viability, T/C: 0.44%
Second compound 10 µM, first compound 0.01 µM
  viability, T/C: 0.53%
[21]
  viability, T/C: 0.53%
[22]
  viability, T/C: 0.4%
[23]
  viability, T/C: 0.55%
[24]
  viability, T/C: 0.49%
